Assay results published in patent publication US11602534B2, “Pyrimidine derivative kinase inhibitors” (HEFEI INSTITUTES OF PHYSICAL SCIENCE, CHINESE ACADEMY OF …, priority 2017, dated 2023).

Columns and labels:
FLT3-ITD-BaF3 = assay: Proliferation of FLT3-ITD-BaF3 cells, CCK8 cell viability assay; assay type: cell-based; details: Mus musculus, 72 hours, stably expressing FLT3/ITD
In short: (§1)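 Murine BaF3 cells made IL-3-independent by retroviral transduction of human kinase domains fused to N-terminal TEL or TPR fragments; parental BaF3 included. Living cells quantified by CCK8 (dehydrogenase activity) read-out, giving GI50 in μM.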

Tel-FLT3-BaF3 = assay: Proliferation of Tel-FLT3-BaF3 cells, CCK8 cell viability assay; assay type: cell-based; details: Mus musculus, 72 hours, stably expressing FLT3 kinase
In short: as §1

Tel-RET-BaF3 = assay: Proliferation of Tel-RET-BaF3 cells, CCK8 cell viability assay; assay type: cell-based; details: Mus musculus, 72 hours, stably expressing RET kinase
Source text: (§2) In this example the following cells were used: […] (purchased from ATCC), mouse P210-BaF3 (stably expressing BCR-ABL mutant activated kinase), mouse P210/T315I-BaF3 (stably expressing BCR-ABL/T315I mutant activated kinase), mouse FLT3-ITD-BaF3 (stably expressing FLT3/ITD mutant activated kinase), mouse TEL-FLT3-BaF3 (stably expressing FLT3 kinase), mouse TEL-cKIT-BaF3 (stably expressing cKIT kinase), mouse BaF3-tel/T670I-cKit (stably expressing cKIT/T670I mutant activated kinase), mouse Tel-VEGFR2-BaF3 (stably expressing VEGFR2 kinase), mouse Tel-PDGFRα-BaF3 (stably expressing PDGFRα kinase), mouse Tel-PDGFRβ-BaF3 (stably expressing PDGFRβ kinase), mouse Tel-RET-BaF3 (stably expressing RET kinase). The above cell lines were all constructed by our laboratory according to the following method: the kinase region sequences of human P210, P210/T315I, FLT3/ITD, FLT3, cKIT, cKIT/T670I, VEGFR2, PDGFRα, PDGFRβ, RET were respectively amplified by PCR, and inserted into MSCV-Puro vectors having N-terminal TEL or TPR fragments (Clontech). The vectors were stably transfected into mouse BaF3 cells by means of retrovirus, and the growth factor IL-3 were removed, eventually obtaining cell lines that depend on transferred protein P210, P210/T315I, FLT3/ITD, FLT3, cKIT, cKIT/T670I, VEGFR2, PDGFRα, PDGFRβ, or RET.
(§3) GI50 (unit: μM) was calculated by quantifying the number of living cells based on quantitative measurement of reductive dehydrogenase in living cells with CCK8 cell viability assay kit (Bestbio, China).

Tel-cKit/T670I-BaF3 = assay: Proliferation of Tel-cKit/T670I-BaF3 cells, CCK8 cell viability assay; assay type: cell-based; details: Mus musculus, 72 hours, stably expressing cKIT/T670I
In short: (§4)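 Mouse BaF3 ± TEL-kinase fusion (human cKIT/PDGFRα/PDGFRβ kinase region, MSCV-Puro retrovirus, IL-3 removed → kinase-addicted). Viability by CCK8 (dehydrogenase), GI50 μM.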

P210-BaF3 = assay: Proliferation of P210-BaF3 cells, CCK8 cell viability assay; assay type: cell-based; details: Mus musculus, 72 hours, stably expressing BCR-ABL mutant activated kinase
Source text: as §2, §3

BaF3 = assay: Proliferation of BaF3 cells, CCK8 cell viability assay; assay type: cell-based; details: Mus musculus, 72 hours
In short: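 GI50 (μM) from CCK8 read-out, which measures reductive dehydrogenase activity in living cells. Cells: parental mouse BaF3, or BaF3 stably expressing TEL-fused human cKIT, PDGFRα or PDGFRβ kinase domains and grown without IL-3, making them kinase-dependent.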

TEL-VEGFR2-BaF3 = assay: Proliferation of TEL-VEGFR2-BaF3 cells, CCK8 cell viability assay; assay type: cell-based; details: Mus musculus, 72 hours, stably expressing VEGFR2 kinase
In short: as §1

P210/T315I-BaF3 = assay: Proliferation of P210/T315I-BaF3 cells, CCK8 cell viability assay; assay type: cell-based; details: Mus musculus, 72 hours, stably expressing BCR-ABL/T315I
Source text: as §2, §3

TEL-PDGFRβ-BaF3 = assay: Proliferation of TEL-PDGFRβ-BaF3 cells, CCK8 cell viability assay; assay type: cell-based; details: Mus musculus, 72 hours, stably expressing PDGFRβ kinase
In short: as §4

TEL-PDGFRα-BaF3 = assay: Proliferation of TEL-PDGFRα-BaF3 cells, CCK8 cell viability assay; assay type: cell-based; details: Mus musculus, 72 hours, stably expressing PDGFRα kinase
In short: as §4

Tel-cKit-BaF3 = assay: Proliferation of Tel-cKit-BaF3 cells, CCK8 cell viability assay; assay type: cell-based, mouse; details: for GI50: Mus musculus, 72 hours, CCK8, stably expressing cKIT kinase
In short: as §4

Row | SMILES | GI50 (FLT3-ITD-BaF3) [nM] | GI50 (Tel-FLT3-BaF3) [nM] | GI50 (Tel-RET-BaF3) [nM] | GI50 (Tel-cKit/T670I-BaF3) [nM] | GI50 (P210-BaF3) [nM] | GI50 (BaF3) [nM] | GI50 (TEL-VEGFR2-BaF3) [nM] | GI50 (P210/T315I-BaF3) [nM] | GI50 (TEL-PDGFRβ-BaF3) [nM] | GI50 (TEL-PDGFRα-BaF3) [nM] | GI50 (Tel-cKit-BaF3) [nM] | inhibition of cKIT (in words) (Tel-cKit-BaF3; summary of Table 2)
1 | COCCNc1cc(Oc2ccc(NC(=O)Nc3ccc(CN4CCN(C)CC4)cc3)cc2)ncn1 [Example 172, 1-{4-[6-(2-methoxy-ethylamino)-pyrimidin-4-yloxy]-phenyl}-3-[4-(4-methyl-piperazin-1-ylmethyl)-phenyl]-urea] | 340 | 1100 | > 10000 | > 10000 | > 10000 | > 10000 | 8300 | > 10000 | 750 | 110 | > 10000 | –
2 | Cc1ccc(NC(=O)NC2CCC(Oc3cc(NCCN)ncn3)CC2)cc1C(F)(F)F (centres unmarked) [Example 128, 1-{4-[6-(2-amino-ethylamino)-pyrimidin-4-yloxy]-cyclohexyl}-3-(4-methyl-3-trifluoromethyl-phenyl)-urea] | 87 | 150 | 3870 | 641 | > 10000 | > 10000 | 1190 | 8730 | 150 | 110 | 8470 | –
3 | CC(=O)Nc1cc(Oc2ccc(NC(=O)Cc3cccc([N+](=O)[O-])c3C)cc2)ncn1 [Example 9, N-[4-(6-acetylamino-pyrimidin-4-yloxy)-phenyl]-2-(2-methyl-3-nitro-phenyl)-acetamide] | 2 | 12 | > 10000 | 5630 | > 10000 | > 10000 | 304 | > 10000 | 10 | 4 | 584 | –
4 | CC(=O)Nc1cc(Oc2ccc(NC(=O)C(O)c3ccc(Br)cc3)cc2)ncn1 (centres unmarked) [Example 14, N-[4-(6-acetylamino-pyrimidin-4-yloxy)-phenyl]-2-(4-bromo-phenyl)-2-hydroxy-acetamide] | 284 | 713 | > 10000 | > 10000 | > 10000 | > 10000 | 1240 | > 10000 | 341 | 89 | > 10000 | –
5 | CC(=O)Nc1cc(Oc2ccc(NC(=O)Cc3cc(F)cc(F)c3)cc2)ncn1 [Example 173, N-[4-(6-acetylamino-pyrimidin-4-yloxy)-phenyl]-2-(3,5-difluoro-phenyl)-acetamide] | 92 | 510 | > 10000 | > 10000 | > 10000 | > 10000 | 1400 | > 10000 | 39 | 14 | 3600 | –
6 | CC(=O)Nc1cc(Oc2ccc(NC(=O)Cc3c(Cl)cccc3Cl)cc2)ncn1 [Example 6, N-[4-(6-acetylamino-pyrimidin-4-yloxy)-phenyl]-2-(2,6-dichloro-phenyl)-acetamide] | 63 | 663 | > 10000 | > 10000 | > 10000 | > 10000 | 1930 | – | 346 | 59 | > 10000 | –
7 | CNC(=O)c1cc(Oc2ccc(NC(=O)Nc3ccc(Cl)c(C(F)(F)F)c3)cc2)ccn1 [Sorafenib, reference compound] | 0.3 | 0.9 | 365 | 112 | 3830 | 6990 | – | – | 35 | 0.6 | 58 | strongly inhibits
8 | CC(=O)Nc1cc(Oc2ccc(NC(=O)Cc3ccccc3I)cc2)ncn1 [Example 4, N-[4-(6-acetylamino-pyrimidin-4-yloxy)-phenyl]-2-(2-iodo-phenyl)-acetamide] | 61 | 667 | > 10000 | > 10000 | > 10000 | > 10000 | 734 | – | 48 | 13 | > 10000 | –

More lines, main results first:

Row | GI50 (FLT3-ITD-BaF3) [nM] | GI50 (Tel-FLT3-BaF3) [nM] | GI50 (Tel-RET-BaF3) [nM] | GI50 (Tel-cKit/T670I-BaF3) [nM] | GI50 (P210-BaF3) [nM] | GI50 (BaF3) [nM] | GI50 (TEL-VEGFR2-BaF3) [nM] | GI50 (P210/T315I-BaF3) [nM] | GI50 (TEL-PDGFRβ-BaF3) [nM] | GI50 (TEL-PDGFRα-BaF3) [nM] | GI50 (Tel-cKit-BaF3) [nM] | SMILES | inhibition of cKIT (in words) (Tel-cKit-BaF3; summary of Table 2)
9 | 168 | 580 | 4180 | 2400 | 5360 | 5060 | 5090 | 3930 | 330 | 21 | 5190 | Cc1ccc(NC(=O)NC2CCC(Oc3cc(NCCO)ncn3)CC2)cc1C(F)(F)F (centres unmarked) [Example 40, 1-{4-[6-(2-hydroxy-ethylamino)-pyrimidin-4-yloxy]-cyclohexyl}-3-(4-methyl-3-trifluoromethyl-phenyl)-urea] | –
10 | 3 | 22 | 331 | 2850 | – | 9010 | 39 | 1720 | 315 | 112 | 330 | COc1ccc(CNc2cc(Oc3ccc(NC(=O)Nc4ccc(CN5CCNCC5)c(C(F)(F)F)c4)cc3)ncn2)cc1 [Example 180, 1-{4-[6-(4-methoxy-benzylamino)-pyrimidin-4-yloxy]-phenyl}-3-(4-piperazin-1-ylmethyl-3-trifluoromethyl-phenyl)-urea] | –
11 | 170 | 1570 | > 10000 | > 10000 | > 10000 | > 10000 | – | > 10000 | 154 | 165 | 5680 | COCCNc1cc(Oc2ccc(NC(=O)Nc3ccc(C(F)(F)F)cc3)cc2)ncn1 [Example 73, 1-{4-[6-(2-methoxy-ethylamino)-pyrimidin-4-yloxy]-phenyl}-3-(4-trifluoromethyl-phenyl)-urea] | –
12 | 37 | 1090 | 3830 | 1010 | – | 6050 | 1330 | – | 30 | 5 | 287 | Cc1ccc(NC(=O)Nc2ccc(Oc3cc(N4CCOC[C@H]4C)ncn3)cc2)cc1C(F)(F)F [Example 114, (R)-1-(4-methyl-3-(trifluoromethyl)phenyl)-3-(4-((6-(3-methylmorpholino)pyrimidin-4-yl)oxy)phenyl)urea] | –
13 | 413 | 2190 | 3970 | 4250 | – | 9870 | 2280 | – | 190 | 52 | 2120 | Cc1ccc(NC(=O)Nc2ccc(Oc3cc(N4CCN(C(=O)CC(C)(C)C)C[C@H]4C)ncn3)cc2)cc1C(F)(F)F [Example 115, (R)-1-(4-((6-(4-(3,3-dimethylbutyryl)-2-methylpiperazin-1-yl)pyrimidin-4-yl)oxy)phenyl)-3-(4-methyl-3-(trifluoromethyl)phenyl)urea] | –
14 | 290 | 670 | 3620 | 5130 | – | 8480 | 2890 | – | 173 | 14 | 1800 | Cc1ccc(NC(=O)Nc2ccc(Oc3cc(N4CCNCC4C)ncn3)cc2)cc1C(F)(F)F (centres unmarked) [Example 104, 1-{4-[6-(2-methyl-piperazin-1-yl)-pyrimidin-4-yloxy]-phenyl}-3-(4-methyl-3-trifluoromethyl-phenyl)-urea] | –
15 | 190 | 480 | > 10000 | 9530 | – | > 10000 | 2890 | – | 355 | 70 | 3220 | Cc1ccc(NC(=O)Nc2ccc(Oc3cc(NC4CCNCC4)ncn3)cc2)cc1C(F)(F)F [Example 103, 1-(4-methyl-3-trifluoromethyl-phenyl)-3-{4-[6-(piperidin-4-ylamino)-pyrimidin-4-yloxy]-phenyl}-urea] | –
